The text below walks through data of patent US20250360210A1, “IMMUNOEFFECTOR CELLS DERIVED FROM INDUCED PLURIPOTENT STEM CELLS GENETICALLY ENGINEERED WITH MEMBRANE BOUND IL12 AND USES THEREOF” (Century Therapeutics, Inc., priority 2022, published 2025).

This data set deals with T1, ADAM17 (Homo sapiens, UniProt P78536).
T1 construct: endogenous in cells; host or cells: iPSCs engineered with p1514 (ADAM17-cleavable membrane-tethered IL12 transgene at the AAVS1 locus)
In words: Flow cytometry for IL12 on the surface of p1514-engineered iPSCs after incubation with TAPI-1. It counts as cell-based. The note with it: concentrations lower than 50 uM. The method, then: To confirm expression in cells engineered with the ADAM17 cleavable membrane tethered IL12 (p1514; FIG. 1B), the iPSCs were incubated with different concentrations of the ADAM17 inhibitor TAPI-1 and then analyzed by flow cytometry for IL12 detection on the surface of the engineered iPSCs.
Lower concentrations had no effect on cell health or tmIL12 detection)
Background: In flow cytometry, cells or beads pass a laser one at a time.

T1 sequence (P78536 215-824): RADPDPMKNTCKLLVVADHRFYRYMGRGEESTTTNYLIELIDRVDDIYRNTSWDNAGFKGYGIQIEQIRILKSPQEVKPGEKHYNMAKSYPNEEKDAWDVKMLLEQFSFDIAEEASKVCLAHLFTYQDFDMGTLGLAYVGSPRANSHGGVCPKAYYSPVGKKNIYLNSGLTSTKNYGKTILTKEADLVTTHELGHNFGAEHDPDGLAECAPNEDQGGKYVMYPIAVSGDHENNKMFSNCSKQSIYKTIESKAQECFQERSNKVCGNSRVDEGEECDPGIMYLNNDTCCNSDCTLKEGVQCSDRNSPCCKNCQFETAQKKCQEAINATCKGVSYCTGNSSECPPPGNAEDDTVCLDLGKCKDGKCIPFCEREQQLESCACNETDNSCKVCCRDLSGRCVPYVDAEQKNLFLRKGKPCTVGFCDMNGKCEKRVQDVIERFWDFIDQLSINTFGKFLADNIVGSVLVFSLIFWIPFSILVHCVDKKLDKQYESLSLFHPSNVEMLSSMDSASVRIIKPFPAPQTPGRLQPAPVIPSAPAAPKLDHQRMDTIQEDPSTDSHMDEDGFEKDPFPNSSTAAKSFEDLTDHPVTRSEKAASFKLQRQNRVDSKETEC

Take `CC(C)C[C@H](CC(=O)NO)C(=O)N[C@@H](Cc1ccc2ccccc2c1)C(=O)N[C@@H](C)C(=O)NCCN` [TAPI-1]: the “tmIL12 detection on surface of engineered iPSCs” value was “no effect”. The cell health result (engineered iPSCs) is “no effect”.
